According to ChEMBL document CHEMBL4257451, “Synergism of fused bicyclic 2-aminothiazolyl compounds with polymyxin B against Klebsiella pneumoniae” (Medchemcomm, 2017):

How the values were obtained:
Klebsiella pneumoniae [1] = test: Growth inhibition of Klebsiella pneumoniae SIPI-KPN-1712 by broth microdilution method; type: organism-based; details: in vitro
Klebsiella pneumoniae [2] = test: Synergistic antibacterial activity against Klebsiella pneumoniae SIPI-KPN-1712 assessed as polymixin B MIC at 4 ug/ml by broth microdilution method (reference value: 32 ug/ml); type: functional
Klebsiella pneumoniae [3] = test: Synergistic antibacterial activity against Klebsiella pneumoniae SIPI-KPN-1712 assessed as fractional Inhibitory concentration index in presence of polymixin B at 2 ug/ml by broth microdilution method; type: functional

| SMILES | MIC (Klebsiella pneumoniae [1]) [µg/mL] | MIC (Klebsiella pneumoniae [2]) [µg/mL] | fractional inhibitory concentration index (FICI) (Klebsiella pneumoniae [3]) |
| --- | --- | --- | --- |
| CCCC(CCC)OC1CCCc2nc(Nc3ccc(Cl)cc3)sc21 (stereo not given) | > 128 | 4 | 0.16 |
| CCc1ccc(Nc2nc3c(s2)C(OC)CCC3)cc1 (stereo not given) | > 128 | 32 | 1.03 |
| COC1CCCc2nc(Nc3ccc(Oc4ccccc4C)cc3)sc21 (stereo not given) | > 128 | 16 | 0.53 |
| CCOC1CCCc2nc(Nc3ccc(F)cc3)sc21 (stereo not given) | > 128 | 16 | 0.53 |
| COC1CCCc2nc(Nc3ccc(Oc4ccc(F)cc4)cc3)sc21 (stereo not given) | > 128 | 32 | 1.03 |
